# Assay results published in patent US12285408B2, “Methods and compositions for the treatment of snake bite” (priority 2021, dated 2025).
# How the values were obtained:
# [1] = tested on: SVMP activity of E. ocellatus, E. carinatus, B. asper and B. arietans venoms; assay: In vitro kinetic fluorogenic SVMP assay (Study 2); assay type: biochemical
# Excerpt: FIG. 10. […] (A) SVMP activities of the five viper venoms quantified by fluorogenic assay. The data presented represent mean measurements and SEMs of area under the curves of fluorescent arbitrary units taken from three independent experimental runs. EOC, E. ocellatus; ECAR, E. carinatus; BAS, Bothrops asper, BAR, Bitis arietans; DRUS, Daboia russelii. (B) The effectiveness of metal chelators and peptidomimetic hydroxamate inhibitors at inhibiting the SVMP activity of the various viper venoms. Drug concentrations from 150 μM to 150 nM (highest to lowest dose tested) are presented. The data is expressed as percentage of the venom-only sample (100%, top dashed line). The negative control is presented as an interval (bottom dashed lines) and represents the values recorded in the PBS-only samples (expressed as percentage of venom activity), where the highest and the lowest values in each set of independent experiments are depicted. […] All data represent triplicate independent repeats with SEMs, where each technical repeat represents the mean of n≥2 technical replicates.
# We used an in vitro kinetic fluorogenic assay^28 to assess the SVMP bioactivity of each venom and its inhibition by varying concentrations of the four SVMP-inhibitors.
# The SVMP assay measuring metalloproteinase activity and the plasma assay measuring coagulation in the presence or absence of venoms and inhibitors were performed as previously described^28. The SVMP assay kinetically measured cleavage of a quenched fluorogenic substrate (ES010, R&D Biosystems) by venom in the presence or absence of inhibitors.
# Briefly, 10 μl of the substrate (supplied as a 6.2 mM stock) was used per 5 ml reaction buffer (150 mM NaCl, 50 mM Tris-CI pH 7.5). Reactions consisted of 10 μl of venom±inhibitors in PBS and 90 μl of substrate. Venoms were used at 1 μg/reaction and final inhibitor concentrations ranged from 150 μM to 150 nM. Samples were preincubated for 30 min at 37° C. and pipetted in triplicate into 384-well plates (Greiner). Thereafter, data was collected on an Omega FLUOstar (BMG Labtech) instrument at an excitation wavelength of 320 nm and emission wavelength of 405 nm at 25° C. for 1 h. The areas under the curve (AUCs) in the 0-40 min interval were calculated for each sample using MARS data analysis software v3.31 (BMG Labtech); this time point was chosen as the time where all fluorescence curves had reached a plateau (maximum fluorescence). For comparing venom-only samples, the means of at least three independent experimental runs for each condition, expressed as AUCs (n≥3), were plotted at each inhibitor concentration with standard error of the mean (SEM). To determine inhibitor efficacy, the AUCs for each of the samples that consisted of venom+inhibitors were transformed and expressed as percentages of the venom-only sample (where the venom was 100%). The negative control (PBS only) was also expressed relative to the venom, and the variation in background was presented as an interval delineated by the lowest and highest values in the PBS-only samples across concentrations and inhibitors for a specific venom. […] However, only the latter two concentrations were sufficiently depleted of DMSO for viable use in the assay.
# [2] = tested on: procoagulant activities of viper venoms (E. ocellatus, E. carinatus, B. asper, D. russelii); assay: Plasma clotting assay, neutralization of procoagulant venom activity; assay type: biochemical; conditions: range across all venoms, 100 ng venom, bovine plasma; read-out: IC50, inhibition of procoagulant activity
# Excerpt: FIG. 11. SVMP-inhibitors neutralize the in vitro procoagulant activities of several geographically distinct viper venoms. […] The data presented represents the maximum clotting velocity, calculated as the maximum of the first derivative of each clotting curve, from triplicate independent repeat experiments with SEMs, where each technical repeat represents the mean of n≥2 technical replicates. EOC, E. ocellatus; ECAR, E. carinatus; BAS, Bothrops asper, BAR, Bitis arietans; DRUS, Daboia russelii. (B) Neutralization of procoagulant venom activity by four SVMP-inhibitors across four drug concentrations (150 μM to 150 nM). The data is expressed as the maximum clotting velocity at each dose. The negative (PBS) and positive (venom-only) controls are presented as intervals (bottom dashed and top dashed lines, respectively), with the latter representing the mean maximum clotting velocity in these samples±SEM. The data represent triplicate independent repeats with SEMs, where each technical repeat represents the mean of n≥2 technical replicates. Note the different y-axis scales.
# Since SVMPs are key toxins associated with causing coagulopathy, we next investigated whether the same peptidomimetic and metal chelating inhibitors could also neutralize the procoagulant bioactivities of viper venoms. To do so, we used a validated kinetic absorbance-based assay monitoring plasma clotting^35 in the presence or absence of venoms and inhibitors (FIG. 11).
# (§1) We used a previously developed plasma clotting assay^35 to measure venom-induced coagulation. Briefly, 100 ng of each venom was incubated at 37° C. for 30 min in the presence or absence of inhibitors (150 μM to 150 nM final concentrations). The final reaction consisted of 10 μl venom±inhibitors in PBS, 20 μl 20 mM CaCl2), and 20 μl citrated bovine plasma (VWR). The samples were pipetted in triplicate into 384-well plates, and absorbance monitored at 595 nm for 2 h at 25° C. on an Omega FLUOstar instrument. We calculated the maximum clotting velocity of each of the curves as per clot waveform analysis^67, by calculating the maximum of the first derivative. The means of at least three independent experimental runs for each condition were plotted at each inhibitor concentration with SEMs.
# normal plasma clotting = assay: Normal plasma clotting in the absence of venom; assay type: biochemical, bovine; conditions: 150 μM, no venom
# Description: FIG. 14. The serine protease-inhibitor nafamostat inhibits normal plasma clotting. Comparison of normal clotting (i.e. in the absence of venom and inhibitors via recalcification) and clotting in the presence of the generic serine protease-inhibitor nafamostat. […] The anticoagulant effect of this drug is expressed as a percentage of the plasma-only activity.
# as §1
# [3] = in vivo; cited from earlier work
# Echis ocellatus venom = assay: Murine preincubation (co-incubation) model of venom lethality, intravenous, with TAT ELISA; assay type: in vivo, CD-1 mice; conditions: 45 μg venom (2.5×LD50) preincubated 30 min at 37° C. with 60 μg of each drug, i.v., 6 h monitoring, n=5
# Description: The intravenous median lethal dose (venom LD50) for E. ocellatus (Nigeria) of 17.85 μg per mouse was previously determined. Mice were challenged with 45 μg of E. ocellatus venom (2.5×the intravenous LD50 dose) in a refined version of the World Health Organization-recommended antivenom efficacy experiments. Groups of five male 18-22 g CD-1 mice (Charles River, UK) received experimental doses that consisted of either (a) venom only (2.5×LD50 dose), (b) venom and drug (60 μg) or (c) drug only. All experimental doses were prepared to a volume of 200 μl in PBS and incubated at 37° C. for 30 mins prior to their intravenous injection via the tail vein. Animals were monitored for 6 hours and euthanized upon observation of humane endpoints (seizure, pulmonary distress, paralysis, hemorrhage). Deaths, time of death, and survivors were recorded; where “deaths/time of death” represents the implementation of euthanasia based on the defined humane endpoints.
# The same murine preincubation model was used to assess the efficacy of distinct toxin family inhibiting drugs in comparison with a drug combination. […] All experimental doses were prepared to a volume of 200 μl in PBS and incubated at 37° C. for 30 min prior to their intravenous injection via the tail vein. Animals were monitored for 6 h, and euthanized via rising concentrations of CO2 upon observation of previously defined humane end points that are predicators of lethality (e.g., seizure, pulmonary distress, paralysis, hemorrhage). Deaths, time of death, and survivors were recorded; where death/time of death represents the implementation of euthanasia based on defined humane end points.
# Strong drug hits, those defined as inhibiting >80% of the venom activity in the previously described in vitro metalloproteinase assay (FIG. 1), were next progressed into murine preclinical efficacy studies, to assess their ability to prevent venom-induced lethality in vivo. We used an established in vivo model of envenoming to test the efficacy of the seven snake venom metalloproteinase toxin inhibitors identified. This model consisted of the preincubation of the test drug with venom, followed by intravenous injection of the mixture into groups of five male CD-1 mice (18-20 g) via the tail vein followed by 6 hour monitoring, and is based on principles laid out in the gold standard method of preclinical efficacy recommended by the World Health Organization.
# We used an established in vivo model of envenoming^41,42 to test the efficacy of small molecule toxin inhibitors. […]
# [4] = tested on: SVSP activity of viper venoms; assay: Chromogenic SVSP (serine protease) assay; assay type: biochemical
# Excerpt: FIG. 13. Nafamostat inhibits the in vitro serine protease activities of several geographically distinct viper venoms. (A) The serine protease (SVSP) activity of five viper venoms expressed as the rate (ΔAbs/time/μg venom) of substrate consumption determined by kinetic chromogenic assay. The data represents triplicate independent repeats with SEMs, where each technical repeat represents the mean of n≥2 technical replicates. EOC, E. ocellatus; ECAR, E. carinatus; BAS, Bothrops asper, BAR, Bitis arietans; DRUS, Daboia russelii. (B) Neutralization of SVSP venom activity by the serine protease-inhibitor nafamostat. The data is expressed as rates (ΔAbs/time/μg venom) and represents triplicate independent repeats with SEMs, where each technical repeat represents the mean of n≥2 technical replicates. […] Note the different y-axis scales.
# SVSP activity was measured using a chromogenic substrate (S-2288, Cambridge Bioscience). […] The samples were pipetted in triplicate into 384-well plates (Greiner) and absorbance at 405 nm was monitored kinetically for ˜30 min on an Omega FLUOstar instrument (BMG Labtech). Given the linearity of the resulting slopes, negative control readings (PBS) were subtracted from each reading and the rate of substrate consumption calculated by measuring the slope between 0 and 5 mins. […]
Compound,lowest concentration effective / required to fully inhibit SVMP activities ([1]; concentrations tested 150 μM to 150 nM) [µM],"IC50 ([1]; range across venoms, 1 μg venom/reaction, read-out: IC50s, inhibition of SVMP activity) [nM]",IC50 [2] [nM],effect on normal plasma clotting (normal plasma clotting),half-life [3] [min],survival / protection against venom-induced lethality (Echis ocellatus venom),"inhibition of SVSP activity ([4]; highest doses 150 and 15 μM, irrespective of venom)","IC50 ([4]; range across venoms, 1 μg venom/reaction, read-out: IC50s, inhibition of SVSP activity) [nM]"
"OCC(S)CS (centres unmarked) [dimercaprol, 2,3-dimercapto-1-propanol]",1.5,20 to 400,150 to 3700,–,–,–,–,–
N=C(N)c1ccc2cc(OC(=O)c3ccc(N=C(N)N)cc3)ccc2c1 [nafamostat],–,–,–,dramatically inhibits plasma coagulation,~8,no evident efficacy,completely inhibiting SVSP activity,120 to 1070
